One data set relates to Digitaria sanguinalis. In words: Herbicidal activity against Digitaria sanguinalis (hairy crabgrass) assessed as induction of plant damage applied through foliar spraying. In kind it is functional.
Another data set deals with Setaria faberi. In words: Herbicidal activity against Setaria faberi (Giant Foxtail) assessed as induction of plant damage applied through foliar spraying. The data set is classed as functional.
The test system of another data set is Amaranthus retroflexus. The data set can be described thus: Herbicidal activity against Amaranthus retroflexus assessed as induction of plant damage applied through foliar spraying. The data set is classed as functional.
The next data set has as its system Zea mays. In words: Phytotoxicity against Zea mays (maize) assessed as induction of plant damage applied through foliar spraying. The data set is classed as organism-based. To be noted: in vivo, other.
A further data set concerns Abutilon theophrasti. In words: Herbicidal activity against Abutilon theophrasti (velvetleaf) assessed as induction of plant damage applied through foliar spraying. In kind it is functional.

For `O=C1CCCC(=O)C1C(=O)c1ccc(Cl)cc1[N+](=O)[O-]`, the ED80 in the data set with Digitaria sanguinalis was determined as 250 gAi/ha; in the data set on Setaria faberi it was 500 gAi/ha; in the data set with Amaranthus retroflexus, 125 gAi/ha; in the data set with Abutilon theophrasti, 31 gAi/ha. In the data set on Zea mays, the ED0 worked out at 500 gAi/ha.
In the case of `CC1CCC(=O)C(C(=O)c2ccc(Cl)cc2[N+](=O)[O-])C1=O` (stereo not given), the ED80 in the data set on Digitaria sanguinalis came to 63 gAi/ha; in the data set on Amaranthus retroflexus, 250 gAi/ha; in the data set on Abutilon theophrasti, 63 gAi/ha. Further, in the data set on Zea mays, the ED0 worked out at 125 gAi/ha.
For `CC1CC(=O)C(C(=O)c2ccc(Cl)cc2[N+](=O)[O-])C(=O)C1` (stereo not given), the ED80 in the data set with Digitaria sanguinalis was 31 gAi/ha; in the data set with Setaria faberi, 16 gAi/ha; in the data set on Amaranthus retroflexus, 125 gAi/ha; in the data set on Abutilon theophrasti, 125 gAi/ha. The ED0 in the data set with Zea mays was 63 gAi/ha.
Turning to `CCCC1CC(=O)C(C(=O)c2ccc(Cl)cc2[N+](=O)[O-])C(=O)C1` (stereo not given), the ED80 with Digitaria sanguinalis is 500 gAi/ha; in the data set with Amaranthus retroflexus it was 2000 gAi/ha; in the data set on Abutilon theophrasti it was over 2000 gAi/ha. In the data set on Zea mays, the ED0 was 125 gAi/ha.
In the case of `CCCCC1CC(=O)C(C(=O)c2ccc(Cl)cc2[N+](=O)[O-])C(=O)C1` (stereo not given), the ED80 is over 2000 gAi/ha with Digitaria sanguinalis, over 2000 gAi/ha in the data set with Amaranthus retroflexus and 500 gAi/ha in the data set on Abutilon theophrasti. The ED0 with Zea mays came out at 1000 gAi/ha.
`CSCC1CC(=O)C(C(=O)c2ccc(Cl)cc2[N+](=O)[O-])C(=O)C1` (stereo not given): the ED80 is recorded as 250 gAi/ha with Digitaria sanguinalis, 125 gAi/ha in the data set with Setaria faberi, 500 gAi/ha in the data set on Amaranthus retroflexus and 63 gAi/ha in the data set with Abutilon theophrasti. For the same molecule, the ED0 in the data set with Zea mays is reported as 125 gAi/ha.
For the molecule `COCC1CC(=O)C(C(=O)c2ccc(Cl)cc2[N+](=O)[O-])C(=O)C1` (stereo not given), the ED80 with Digitaria sanguinalis worked out at 500 gAi/ha; in the data set with Amaranthus retroflexus it was 125 gAi/ha; in the data set with Abutilon theophrasti, 125 gAi/ha. The ED0 with Zea mays was determined as 125 gAi/ha.
As to `CC1(C)CC(=O)C(C(=O)c2ccc(Cl)cc2[N+](=O)[O-])C(=O)C1`, the values for the ED80 with Digitaria sanguinalis, with Amaranthus retroflexus and in the data set on Abutilon theophrasti were 250 gAi/ha, 2000 gAi/ha and 125 gAi/ha, respectively. In addition, the ED0 in the data set with Zea mays came to 500 gAi/ha.
With `CC1CC(=O)C(C(=O)c2ccc(Cl)cc2[N+](=O)[O-])C(=O)C1C` (stereo not given), the ED80 in the data set on Digitaria sanguinalis was found to be 31 gAi/ha; in the data set on Setaria faberi, 31 gAi/ha; in the data set with Amaranthus retroflexus it was 500 gAi/ha; with Abutilon theophrasti, 125 gAi/ha. The ED0 with Zea mays was determined as 125 gAi/ha.
Take `O=C1CC2CCCCC2C(=O)C1C(=O)c1ccc(Cl)cc1[N+](=O)[O-]` (stereo not given): the ED80 in the data set on Digitaria sanguinalis was 500 gAi/ha; with Setaria faberi it was 2000 gAi/ha; with Amaranthus retroflexus, 2000 gAi/ha; in the data set with Abutilon theophrasti, 500 gAi/ha. Further, the ED0 in the data set on Zea mays is given as 500 gAi/ha.
As for `O=C1CC2CCCC2C(=O)C1C(=O)c1ccc(Cl)cc1[N+](=O)[O-]` (stereo not given), the ED80 is recorded as 250 gAi/ha in the data set on Digitaria sanguinalis, 500 gAi/ha in the data set with Setaria faberi, 500 gAi/ha with Amaranthus retroflexus and 500 gAi/ha in the data set with Abutilon theophrasti. Also, the ED0 in the data set on Zea mays was found to be 63 gAi/ha.
For `O=C1C[C@H]2C[C@H]2C(=O)C1C(=O)c1ccc(C(F)(F)F)cc1[N+](=O)[O-]` (relative stereo), the ED80 with Digitaria sanguinalis is on record as 63 gAi/ha; in the data set on Setaria faberi it was 63 gAi/ha; in the data set on Amaranthus retroflexus, 63 gAi/ha; in the data set with Abutilon theophrasti, 16 gAi/ha. In addition, the ED0 in the data set with Zea mays was 31 gAi/ha.
With `CS(=O)(=O)c1ccc(C(=O)C2C(=O)C[C@H]3C[C@H]3C2=O)c(Cl)c1` (relative stereo), the ED80 is 125 gAi/ha in the data set with Digitaria sanguinalis, 63 gAi/ha in the data set with Setaria faberi, 31 gAi/ha in the data set with Amaranthus retroflexus and 16 gAi/ha with Abutilon theophrasti. Further, the ED0 with Zea mays is reported as 125 gAi/ha.
`Cc1cc(S(C)(=O)=O)ccc1C(=O)C1C(=O)C[C@H]2C[C@H]2C1=O` (relative stereo): the ED80 came to 250 gAi/ha with Digitaria sanguinalis, 250 gAi/ha with Setaria faberi, 63 gAi/ha with Amaranthus retroflexus and 16 gAi/ha in the data set with Abutilon theophrasti. For the same molecule, in the data set with Zea mays, the ED0 is on record as 250 gAi/ha.
Regarding `O=C1C[C@H]2C[C@H]2C(=O)C1C(=O)c1ccc(Cl)cc1[N+](=O)[O-]` (relative stereo), the ED80 in the data set on Digitaria sanguinalis stood at 63 gAi/ha; with Setaria faberi, 125 gAi/ha; in the data set on Amaranthus retroflexus it was 63 gAi/ha; in the data set on Abutilon theophrasti, 16 gAi/ha. The ED0 with Zea mays came out at 16 gAi/ha.
In the case of `COc1ccc(C(=O)C2C(=O)C[C@H]3C[C@H]3C2=O)c([N+](=O)[O-])c1` (relative stereo), the ED80 is listed as 125 gAi/ha in the data set with Digitaria sanguinalis, 125 gAi/ha in the data set on Setaria faberi, 500 gAi/ha in the data set with Amaranthus retroflexus and 125 gAi/ha in the data set with Abutilon theophrasti. Also, the ED0 in the data set with Zea mays amounted to 31 gAi/ha.
For `CSc1ccc(C(=O)C2C(=O)C[C@H]3C[C@H]3C2=O)c([N+](=O)[O-])c1` (relative stereo), the ED80 in the data set on Digitaria sanguinalis is reported as 63 gAi/ha; in the data set with Setaria faberi it was 250 gAi/ha; in the data set with Amaranthus retroflexus, 31 gAi/ha; in the data set with Abutilon theophrasti it was 16 gAi/ha. Also, the ED0 in the data set with Zea mays is on record as 125 gAi/ha.
The matching figures for `CS(=O)(=O)c1ccc(C(=O)C2C(=O)C[C@H]3C[C@H]3C2=O)c([N+](=O)[O-])c1` (relative stereo): 125 gAi/ha, 250 gAi/ha, 63 gAi/ha, 16 gAi/ha and 250 gAi/ha.
Regarding `CS(=O)(=O)c1ccc(C(=O)C2C(=O)CCCC2=O)c(Cl)c1` [SULCOTRIONE], the ED80 was determined as 125 gAi/ha with Digitaria sanguinalis, 250 gAi/ha with Setaria faberi, 250 gAi/ha in the data set on Amaranthus retroflexus and 16 gAi/ha in the data set on Abutilon theophrasti. In addition, the ED0 in the data set on Zea mays amounted to 250 gAi/ha.
